Test results from US10479793B2, “Imidazopyridazine compounds useful as modulators of IL-12, IL-23 and/or IFN alpha responses” (BRISTOL-MYERS SQUIBB COMPANY, priority 2015, dated 2019).
Read-outs that look alike come from different tables or passages of the source.

Legend:
[1] = target: T1, recombinantly expressed His-tagged protein corresponding to amino acids 575-869 of human Tyk2 (Homo sapiens, UniProt P29597); experiment: Probe displacement assay (scintillation proximity, tritiated probe); type: binding; conditions: His-tagged Tyk2 (575-869) 2.5 nM, 40 nM radiolabeled probe, 30 minutes at room temperature
T1 construct: made in house
Protocol: The preparation of radiolabeled probe, (R)—N-(1-(3-(8-methyl-5-(methylamino)-8H-imidazo[4,5-d]thiazolo[5,4-b]pyridin-2-yl)phenyl)ethyl)-2-([^3H]methylsulfonyl)benzamide, was performed as described below: […]

[2] = tested on: IL-23 stimulated Kit225 T cells with a stably-integrated STAT-dependent luciferase reporter; experiment: Kit225 T cell assay, IL-23 stimulated STAT-dependent luciferase reporter; type: cell-based, human
Protocol: (§1) Kit225 T cells with a stably-integrated STAT-dependent luciferase reporter were plated in RPMI (GIBCO) containing 10% heat-inactivated FBS (GIBCO) and 100 U/mL PenStrep (GIBCO). The cells were then stimulated with either 20 ng/mL human recombinant IL-23 or 200 U/mL human recombinant IFNα (PBL InterferonSource) for 5-6 hours. Luciferase expression was measured using the STEADY-GLO Luciferase Assay System (PROMEGA) according to the manufacturer's instructions.

[3] = tested on: IFNα stimulated Kit225 T cells with a stably-integrated STAT-dependent luciferase reporter; experiment: Kit225 T cell assay, IFNα stimulated STAT-dependent luciferase reporter; type: cell-based, human
Protocol: as §1

[4] = KIT225, 20 ng/mL human recombinant IL-23, 5-6 hours, luciferase, read-out: IL-23 Kit225 Reporter, (IC50)
[5] = KIT225, 200 U/mL human recombinant IFNα, 5-6 hours, luciferase, read-out: IFNa Kit225 Reporter, (IC50)
[6] = Homo sapiens, KIT225, 20 ng/mL human recombinant IL-23, 5-6 hours, luciferase, read-out: IL-23 Kit225 Reporter, (IC50)
[7] = Homo sapiens, KIT225, 200 U/mL human recombinant IFNα, 5-6 hours, luciferase, read-out: IFNa Kit225 Reporter, (IC50)

T1 sequence (P29597 with tags, fused parts or gaps): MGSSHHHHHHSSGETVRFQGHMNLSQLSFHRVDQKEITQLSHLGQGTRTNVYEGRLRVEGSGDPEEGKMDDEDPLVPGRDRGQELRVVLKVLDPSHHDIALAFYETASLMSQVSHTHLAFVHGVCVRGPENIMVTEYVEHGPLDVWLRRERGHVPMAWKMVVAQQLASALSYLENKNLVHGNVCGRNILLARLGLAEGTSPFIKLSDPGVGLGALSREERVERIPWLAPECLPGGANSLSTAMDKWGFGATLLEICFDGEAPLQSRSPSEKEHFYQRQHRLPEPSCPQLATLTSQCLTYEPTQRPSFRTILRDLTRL

EC50 [1] [nM] | IC50 [2, 4] [µM] | IC50 [3, 5] [µM] | IC50 [2, 6] [µM] | IC50 [3, 7] [µM] | SMILES | IC50 ([2]; Homo sapiens, KIT225, read-out: IL-23 Kit225 Reporter, (IC50, uM)) [µM] | IC50 ([3]; Homo sapiens, KIT225, read-out: IFNa Kit225 Reporter, (IC50, uM)) [µM]
70 | 2.12 | 1.79 | – | – | COCCNc1cc(Nc2cc(C)cc(C)c2)nn2c(C(N)=O)cnc12 [Example 56] | – | –
160 | 9.48 | 12.5 | – | – | Cc1cc(F)cc(Nc2cc(NCC(F)(F)F)c3ncc(C(N)=O)n3n2)c1 [Example 59] | – | –
50 | 2.63 | 1.94 | – | – | Cc1cc(C)cc(Nc2cc(Nc3cncs3)c3ncc(C(N)=O)n3n2)c1 [Example 61] | – | –
300 | 13.2 | 11 | – | – | Cc1cc(C)cc(Nc2cc(Nc3cc(C)n(C)n3)c3ncc(C(N)=O)n3n2)c1 [Example 62] | – | –
280 | 12.5 | 12.5 | – | – | Cc1cc(C)cc(Nc2cc(Nc3cnccn3)c3ncc(C(N)=O)n3n2)c1 [Example 63] | – | –
70 | 12.5 | 12.5 | – | – | Cc1cc(C)cc(Nc2cc(Nc3cccnc3)c3ncc(C(N)=O)n3n2)c1 [Example 64] | – | –
10 | 0.7 | 0.73 | – | – | Cc1cc(C)cc(Nc2cc(N)c3ncc(C(N)=O)n3n2)c1 [Example 67] | – | –
2.26 | – | – | 0.95 | 0.86 | Cc1cc(F)cc(Nc2ccc3ncc(C(=O)NC4CC4)n3n2)c1 [Example 68] | – | –
5.44 | 0.42 | 0.15 | – | – | CNc1nc(Nc2cc(C)cc(C)c2)nn2c(C(N)=O)cnc12 [Example 69] | – | –
80 | 11.2 | 12.5 | – | – | Cc1cc(C)cc(Nc2nc(NC3CC3)c3ncc(C(N)=O)n3n2)c1 [Example 70] | – | –
140 | 2.97 | 12.5 | – | – | Cc1cc(F)cc(Nc2nc(NC3CC3)c3ncc(C(N)=O)n3n2)c1 [Example 71] | – | –
7.75 | 0.28 | 0.14 | – | – | CNc1nc(Nc2cc(C)cc(F)c2)nn2c(C(N)=O)cnc12 [Example 73] | – | –
10 | 0.3 | 0.2 | – | – | CNc1nc(Nc2ccccc2OC)nn2c(C(N)=O)cnc12 [Example 74] | – | –
2.09 | – | – | 0.1 | 0.05 | CNc1cc(Nc2c(OC)ccc(F)c2F)nn2c(C(=O)NC3CC3)cnc12 [Example 75] | – | –
50 | – | – | 3.55 | 2.79 | CNc1cc(N(C)c2ccccc2)nn2c(C(=O)NC3CC3)cnc12 [Example 76] | – | –
4.02 | – | – | 0.03 | 0.01 | CNc1cc(Nc2ccccc2OC)nn2c(C(=O)NC3CC3)cnc12 [Example 77] | – | –
8.17 | 0.18 | 0.07 | – | – | CNc1cc(N2CCc3ccccc32)nn2c(C(=O)NC3CC3)cnc12 [Example 78] | – | –
6.95 | – | – | 0.07 | 0.05 | CNc1cc(Nc2cc(F)cc(F)c2OC)nn2c(C(=O)NC3CC3)cnc12 [Example 79] | – | –
4.83 | 0.15 | 0.12 | – | – | CNc1cc(Nc2ccccc2OC)nn2c(C(=O)NCC(C)(C)O)cnc12 [Example 80] | – | –
7.26 | 0.27 | 0.23 | – | – | CNc1cc(Nc2cc(F)cc(F)c2OC)nn2c(C(=O)NCC(C)(C)O)cnc12 [Example 81] | – | –
10 | 0.18 | 0.09 | – | – | CNc1cc(Nc2cccc3c2OCCO3)nn2c(C(=O)NCC(C)(C)O)cnc12 [Example 82] | – | –
5.76 | 0.17 | 0.06 | – | – | CNc1cc(Nc2cc(F)cc(F)c2OC)nn2c(C(N)=O)cnc12 [Example 83] | – | –
9.31 | 0.04 | 0.03 | – | – | CNc1cc(Nc2cccc(-n3cccn3)n2)nn2c(C(=O)NC3CC3)cnc12 [Example 85] | – | –
20 | – | – | 0.29 | 0.3 | CNc1cc(Nc2cccc(-c3ccccc3)n2)nn2c(C(=O)NC3CC3)cnc12 [Example 86] | – | –

SMILES | EC50 [1] [nM] | IC50 [2, 4] [µM] | IC50 [3, 5] [µM] | IC50 [2, 6] [µM] | IC50 [3, 7] [µM] | IC50 ([2]; Homo sapiens, KIT225, read-out: IL-23 Kit225 Reporter, (IC50, uM)) [µM] | IC50 ([3]; Homo sapiens, KIT225, read-out: IFNa Kit225 Reporter, (IC50, uM)) [µM]
Cc1cc(C)cc(Nc2cc(NCCN(C)C)c3ncc(C(N)=O)n3n2)c1 [Example 58] | 80 | – | – | – | – | 1.55 | 2.96
